These results are taken from patent US20090163476A1, “N-Phenyl Benzamide Derivatives as Sirtuin Modulators” (Sirtris Pharmaceuticals, Inc., priority 2005, published 2009).

Some results are limits rather than exact numbers.

What all share (assay type): biochemical
Test [1] deals with T1, SIRT1 (Homo sapiens, UniProt Q96EB6).
T1 sequence (Q96EB6 1-747): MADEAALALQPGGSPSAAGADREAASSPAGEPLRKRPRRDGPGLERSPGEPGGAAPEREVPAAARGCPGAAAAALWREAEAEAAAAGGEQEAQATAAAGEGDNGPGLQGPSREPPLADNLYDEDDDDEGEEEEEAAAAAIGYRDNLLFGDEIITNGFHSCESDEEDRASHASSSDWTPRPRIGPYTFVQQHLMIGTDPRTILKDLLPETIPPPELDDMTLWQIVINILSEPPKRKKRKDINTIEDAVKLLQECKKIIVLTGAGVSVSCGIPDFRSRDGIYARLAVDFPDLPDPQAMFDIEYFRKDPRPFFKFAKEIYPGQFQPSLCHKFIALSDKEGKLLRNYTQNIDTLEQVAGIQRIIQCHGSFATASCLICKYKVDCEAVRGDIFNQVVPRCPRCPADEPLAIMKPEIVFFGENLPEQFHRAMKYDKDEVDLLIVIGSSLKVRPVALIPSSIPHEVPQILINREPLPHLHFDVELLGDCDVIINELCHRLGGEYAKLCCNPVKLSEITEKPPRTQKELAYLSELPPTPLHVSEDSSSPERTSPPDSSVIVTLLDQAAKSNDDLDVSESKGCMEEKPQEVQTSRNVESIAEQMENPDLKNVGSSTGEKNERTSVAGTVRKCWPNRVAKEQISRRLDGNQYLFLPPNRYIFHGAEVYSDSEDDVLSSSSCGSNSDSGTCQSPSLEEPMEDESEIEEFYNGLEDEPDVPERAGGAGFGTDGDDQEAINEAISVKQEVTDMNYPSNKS
As to the kind of experiment: Fluorescence polarization assay of SIRT1 activity (p53-based peptide substrate). Conditions: activation of SIRT1; peptide 1 for Compounds 1-18, peptide 2 for Compounds 19-164; read-out: ED50 FP. On the procedure:
A fluorescence polarization or mass spectrometry based assay was used to identify modulators of SIRT1 activity. The same assay may be used to identify modulators of any sirtuin protein. The fluorescence polarization assays utilizes one of two different peptides based on a fragment of p53, a known sirtuin deacetylation target. Compounds 1-18 were tested using a substrate containing peptide 1 having 20 amino acid residues as follows: Ac-EE-K(biotin)-[…](Ac)NleSTEG-K(M121)-EE-NH2 (SEQ ID NO: 1) wherein K(biotin) is a biotinolated lysine residue, K(Ac) is an acetylated lysine residue, Nle is norleucine and K(MR121) is a lysine residue modified by an MR121 fluorophore. This peptide is labeled with the fluorophore MR121 (excitation 635 nm/emission 680 nm) at the C-termini and biotin at the N-termini. The sequence of the peptide substrates are based on p53 with several modifications. In particular, all arginine and […] residues other than the acetylated lysine residues have replaced with serine so that the peptides are not susceptible to trypsin cleavage in the absence of deacetylation. In addition, the methionine residues naturally present in the sequences have been replaced with the norleucine because the methionine may be susceptible to oxidation during synthesis and purification. […] The peptide is labeled with the fluorophore 5TMR (excitation 540 nm/emission 580 nm) at the C-terminus. The sequence of the peptide substrate is also based on p53 with several modifications. In addition, the methionine residue naturally present in the sequence was replaced with the norleucine because the methionine may be susceptible to oxidation during synthesis and purification.
The peptide substrates were exposed to a sirtuin protein in the presence of NAD^+ to allow deacetylation of the substrate and render it sensitive to cleavage by trypsin. Trypsin was then added and the reaction was carried to completion (i.e., the deacetylated substrate is cleaved) releasing the MR121 or 5TMR fragment. Streptavidin is then added to the reaction where it can bind both the uncleaved substrate (i.e., any remaining acetylated substrate) and the non-fluorescent portion of the cleaved peptide substrate (i.e., the biotin containing fragment). The fluorescence polarization signal observed for the full length peptide substrates bound to streptavidin was higher than the fluorescence polarization signal observed for the released MR121 or 5TMR C-terminal fragment. In this way, the fluorescence polarization obtained is inversely proportional to the level of deacetylation (e.g., the signal is inversely proportional to the activity of the sirtuin protein). Results were read on a microplate fluorescence polarization reader (Molecular Devices Spectramax MD) with appropriate excitation and emission filters.
The fluorescence polarization assays using peptide 1 is conducted as follows: 0.5 μM peptide substrate and 150 μM βNAD^+ is incubated with 0.1 μg/mL of SIRT1 for 60 minutes at 37° C. in a reaction buffer (25 mM Tris-acetate pH8, 137 mM Na—Ac, 2.7 mM K—Ac, 1 mM Mg—Ac, 0.05% Tween-20, 0.1% Pluronic F127, 10 mM CaCl2, 5 mM DTT, 0.025% BSA, 0.15 mM Nicotinamide). Test compounds 1-18 were solubilized in DMSO and added to the reaction at 11 concentrations ranging from 0.7 μM to 100 μM.
Fluorescence polarization assays using peptide 2 is conducted as follows: 0.5 μM peptide substrate and 120 μM βNAD^+ were incubated with 3 nM SIRT1 for 20 minutes at 25° C. in a reaction buffer (25 mM Tris-acetate pH8, 137 mM Na—Ac, 2.7 mM K—Ac, 1 mM Mg—Ac, 0.05% Tween-20, 0.1% Pluronic F127, 10 mM CaCl2, 5 mM DTT, 0.025% BSA). Test compounds 19-56 were solubilized in DMSO and added to the reaction at 10 concentrations ranging from 300 μM to 0.15 μM in three-fold dilutions.
After the incubation with SIRT1, nicotinamide was added to the reaction to a final concentration of 3 mM to stop the deacetylation reaction and 0.5 μg/mL of trypsin was added to cleave the deacetylated substrate. […]
For orientation: Polarisation of emitted light reports the rotation of a fluorescent probe.

For test [2], the target named is T1, SIRT1. As to the kind of experiment: Mass spectrometry based assay of SIRT1 activity. Also noted: key to FOLD ACTIVATION MS: A: Fold activation >250%; B: Fold Activation <250%; C: no fold activation. To be noted: for EC50: activation of SIRT1, read-out: ED50 MS. The procedure: The mass spectrometry based assay utilizes a peptide having 20 amino acid residues as follows: […] The sequence of the peptide substrate is based on p53 with several modifications. […] Test compounds may be added to the reaction as described above. […] After the 25 minute incubation with SIRT1, 10 μL of 10% formic acid is added to stop the reaction. Reactions are sealed and frozen for later mass spec analysis. Determination of the mass of the substrate peptide allows for precise determination of the degree of acetylation (i.e. starting material) as compared to deacetylated peptide (product). […] This timepoint is the same as that used for test compounds and, within the linear range, the endpoint represents a change in velocity. For each of the above assays, SIRT1 protein was expressed and purified as follows. The SirT1 gene was cloned into a T7-promoter containing vector and transformed into BL21(DE3). The protein was expressed by induction with 1 mM IPTG as an N-terminal His-tag fusion protein at 18° C. overnight and harvested at 30,000×g. […] The protein was purified over a Ni-NTA column (Amersham) and fractions containing pure protein were pooled, concentrated and run over a sizing column (Sephadex S200 26/60 global). The peak containing soluble protein was collected and run on an Ion-exchange column (MonoQ). […] This protein was concentrated and dialyzed against dialysis buffer (20 mM Tris-HCl, 2 mM TCEP) overnight. The protein was aliquoted and frozen at −80° C. until further use.

Test [3] has as its target T1, SIRT1. As to the kind of experiment: SIRT1 fluorescence polarization or mass spectrometry based assay (format not given). To be noted: inhibition of SIRT1 (Table 5).

Consider `COc1ccccc1C(=O)Nc1cccc(NC(=O)c2ccco2)c1` [Compound 6], for which, at SIRT1 [1], the EC50 was more than 150 µM.

For `N#Cc1ccc(C(=O)Nc2cccc(-c3nc4ncccc4o3)c2)cc1` [Compound 45], the EC50 at SIRT1 [1] is more than 150 µM. At SIRT1 [2], the “FOLD ACTIVATION MS” value is reported as “C” and the EC50 is more than 150 µM.

`O=C(Nc1cccc(-c2nc3ncccc3o2)c1)c1ccc(N2CCCCC2)cc1` [Compound 39]: on SIRT1 [1], the EC50 is more than 150 µM. On SIRT1 [2], the “FOLD ACTIVATION MS” value was “C” and the EC50 is more than 150 µM.

Turning to `COc1ccc(C(=O)Nc2cccc(-c3nc4ncccc4o3)c2)c(OC)c1OC` [Compound 53], the EC50 at SIRT1 [1] and on SIRT1 [2] was more than 150 µM in each case. For the same compound, the “FOLD ACTIVATION MS” value on SIRT1 [2] is recorded as “C”.

As to `COc1ccc(C(=O)Nc2cccc(-c3nc4ncccc4o3)c2)c(OC)c1` [Compound 55], the EC50 at SIRT1 [1] and on SIRT1 [2] was less than 50 µM throughout. Also, the “FOLD ACTIVATION MS” value on SIRT1 [2] is recorded as “B (Fold Activation <250%)”.

On to `O=C(Nc1cc(NC(=O)c2ccccc2)c(C(=O)O)cc1C(=O)O)c1ccccc1` [Compound 2], for which, on SIRT1 [1], the EC50 was more than 150 µM.

Regarding `CCOc1cccc(C(=O)Nc2cc(OC)c(OC)cc2C(=O)O)c1` [Compound 8], on SIRT1 [1], the EC50 lay within 51 to 100 µM.

`COc1cc(C)ccc1C(=O)Nc1cccc(-c2nc3ncccc3o2)c1` [Compound 51]: on SIRT1 [1], the EC50 was less than 50 µM. Also, at SIRT1 [2], the “FOLD ACTIVATION MS” value is recorded as “B (Fold Activation <250%)” and the EC50 was less than 50 µM.

Take `CC(=O)Oc1ccc(C(=O)Nc2ccc(C(=O)O)cc2NC(=O)c2ccc(OC(C)=O)cc2)cc1` [Compound 14]: the IC50 – broadly, the concentration that inhibits the measured activity by half – against SIRT1 [3] was 51 to 100 µM.

As for `O=C(Nc1ccccc1C(=O)O)c1cccc(C(=O)Nc2ccccc2C(=O)O)c1` [Compound 3], at SIRT1 [1], the EC50 was 51 to 100 µM.

Turning to `COc1ccc(C(=O)Nc2cccc(-c3nc4ncccc4o3)c2)cc1OC` [Compound 52], the EC50 at SIRT1 [1] was less than 50 µM. Besides, on SIRT1 [2], the “FOLD ACTIVATION MS” value was “B (Fold Activation <250%)” and the EC50 is less than 50 µM.

For the compound `COc1ccc(C(=O)Nc2cccc(-c3nc4ncccc4o3)c2)c(C(F)(F)F)c1` [Compound 40], the EC50 on SIRT1 [1] and on SIRT1 [2] was more than 150 µM in each case. The “FOLD ACTIVATION MS” value on SIRT1 [2] was “C”.

For the compound `O=C(O)c1ccc(NC(=O)c2cccc(NC(=O)c3cccs3)c2)cc1` [Compound 13], the IC50 on SIRT1 [3] is less than 50 µM.

With `O=C(Nc1cccc(-c2nc3ncccc3o2)c1)c1ccc(N2CCOCC2)cc1` [Compound 38], the EC50 on SIRT1 [1] and at SIRT1 [2] was more than 150 µM in each case. Moreover, at SIRT1 [2], the “FOLD ACTIVATION MS” value is “C”.

For the compound `COc1cccc(C(=O)Nc2cccc(-c3nc4ncccc4o3)c2)c1C` [Compound 49], the EC50 was more than 150 µM on SIRT1 [1] and less than 50 µM on SIRT1 [2]. The “FOLD ACTIVATION MS” value at SIRT1 [2] is recorded as “B (Fold Activation <250%)”.

As for `COc1ccc(C(=O)Nc2cccc(-c3nc4ncccc4o3)c2)cc1C(F)(F)F` [Compound 41], the EC50 on SIRT1 [1] and at SIRT1 [2] was more than 150 µM each time. For the same compound, the “FOLD ACTIVATION MS” value at SIRT1 [2] is “C”.

For the compound `CC1COCC(C)N1c1ccc(C(=O)NCc2cccc(CN)c2)cc1NC(=O)c1ccc2ccccc2c1` (stereo not shown) [Compound 9], the EC50 on SIRT1 [1] was 101 to 150 µM.

`N#Cc1cccc(C(=O)Nc2cccc(-c3nc4ncccc4o3)c2)c1` [Compound 44] yielded an IC50 against SIRT1 [3] of more than 150 µM.

On to `COc1cc(C(=O)Nc2cc(Cl)ccc2C(=O)O)ccc1OC(C)=O` [Compound 10], for which the EC50 on SIRT1 [1] is more than 150 µM.

Consider `CN(C)c1ccc(C(=O)Nc2cccc(-c3nc4ncccc4o3)c2)cc1` [Compound 43], for which the EC50 at SIRT1 [1] is less than 50 µM. Further, at SIRT1 [2], the “FOLD ACTIVATION MS” value is “B (Fold Activation <250%)” and the EC50 is less than 50 µM.

For `COc1cccc(OC)c1C(=O)Nc1cccc(-c2nc3ncccc3o2)c1` [Compound 46], the EC50 at SIRT1 [1] is more than 150 µM. On SIRT1 [2], the “FOLD ACTIVATION MS” value was “C” and the EC50 is more than 150 µM.

As to `CN(C)c1cccc(C(=O)Nc2cccc(-c3nc4ncccc4o3)c2)c1` [Compound 42], on SIRT1 [1], the EC50 is less than 50 µM. In addition, at SIRT1 [2], the “FOLD ACTIVATION MS” value is on record as “B (Fold Activation <250%)” and the EC50 is less than 50 µM.

Consider `O=C(Nc1cccc(-c2nc3ncccc3o2)c1)c1ccc(N2CCCC2)cc1` [Compound 47], for which, on SIRT1 [3], the IC50 lay in the range of 51 to 100 µM.

Consider `COc1ccccc1C(=O)Nc1cccc(-c2nc3ncccc3o2)c1` [Compound 7], for which the EC50 on SIRT1 [1] is less than 50 µM.

For the compound `COc1cc(NC(=O)c2cccc(Br)c2)c(C(=O)O)cc1OC` [Compound 5], the EC50 at SIRT1 [1] fell in the range of 51 to 100 µM.

Regarding `CC(=O)Oc1cc(C(=O)Nc2ccccc2C(=O)O)cc(C(=O)Nc2ccccc2C(=O)O)c1` [Compound 1], the EC50 at SIRT1 [1] was less than 50 µM.

`COc1cc(OC)c(C(=O)Nc2cccc(-c3nc4ncccc4o3)c2)c(OC)c1` [Compound 48]: on SIRT1 [1], the EC50 is more than 150 µM. In addition, on SIRT1 [2], the “FOLD ACTIVATION MS” value is “C” and the EC50 was more than 150 µM.

As to `O=C(Nc1cccc(-c2nc3ncccc3o2)c1)c1ccccc1` [Compound 56], the EC50 at SIRT1 [1] is more than 150 µM. At SIRT1 [2], the “FOLD ACTIVATION MS” value is on record as “B (Fold Activation <250%)” and the EC50 was less than 50 µM.
